In general, EC50 refers to the concentration that produces a half-maximal response. In general, solubility refers to the concentration that dissolves in the medium under given conditions. As a reminder, the inhibition is the relative decrease from the control value, in per cent. Low values mean a weak effect, high ones a strong effect.

The record followed here is ChEMBL document CHEMBL3734677, “EVALUATION OF AROMATIC 6-SUBSTITUTED THIENOPYRIMIDINES AS SCAFFOLDS AGAINST PARASITES THAT CAUSE TRYPANOSOMIASIS, LEISHMANIASIS, AND MALARIA” (Medchemcomm, 2015).

The test system of data set [1] is Leishmania major. Kind of data set: Antiparasitic activity against Leishmania major amastigotes. It counts as functional, organism-based. Conditions: Leishmania major; read-out: EC50.
For a further data set, the system named is HepG2. Kind of data set: (§1) Cytotoxicity against human HepG2 cells by MTT assay. Format: cell-based. Conditions: hepg2.
Data set [2] in a line: Aqueous solubility of compound. Format: physicochemical. Conditions: buffer.
Data set [3] can be described thus: Plasma protein binding in human. Format: ADME, cell-free.
Data set [4] can be described thus: Metabolic stability in human microsomes. It counts as ADME, Microsome.
A short description of data set [5]: Metabolic stability in rat Hepatocytes. Format: ADME, cell-based, Hepatocyte.
For data set [6], the system named is Trypanosoma brucei. Kind of data set: Antiparasitic activity against Trypanosoma brucei after 48 hrs by cytometry. It counts as functional, organism-based.
For data set [7], the system named is Trypanosoma cruzi. Kind of data set: Antiparasitic activity against Trypanosoma cruzi at 10 uM. It counts as functional.
In data set [8] the test system is Leishmania major. In words: Antiparasitic activity against Leishmania major promastigotes. Conditions: Leishmania major; read-out: EC50. It counts as functional, organism-based.
In another data set the test system is Plasmodium falciparum. Kind of data set: Antiparasitic activity against Plasmodium falciparum D6. It counts as functional, organism-based. Conditions: Plasmodium falciparum, D6; read-out: EC50.
Data set [9] in a line: as §1. It counts as cell-based. The note with it: HepG2 cells, read-out: TC50 (the source's name).
Data set [10] in a line: Selectivity ratio, ratio of EC50 for Plasmodium falciparum W2 to EC50 for Plasmodium falciparum D6. Format: functional.
A short description of data set [11]: Selectivity ratio, ratio of EC50 for Plasmodium falciparum C235 to EC50 for Plasmodium falciparum D6. Format: functional.
Data set [12] has as its system Trypanosoma cruzi. In words: Antiparasitic activity against Trypanosoma cruzi. Format: functional, organism-based.
For data set [13], the system named is Trypanosoma brucei. In words: Antiparasitic activity against Trypanosoma brucei at 5 uM after 48 hrs by cytometry. Format: functional.
The test system of data set [14] is Trypanosoma brucei brucei. In words: Antiparasitic activity against bloodstream Trypanosoma brucei bruei CA427 after 48 hrs by cytometry. It counts as functional, organism-based. The note with it: CA427, 48 h.

With `Fc1cccc(COc2ccc(Nc3ncnc4ccc(-c5cccc(N6CCOCC6)c5)cc34)cc2Cl)c1`, in the data set with Leishmania major [1], the EC50 was determined as 7.98 µM. The Activity entry in the data set with HepG2 is on record as “Non-toxic”. In data set [2], the solubility is below 1 µM. For the same molecule, the PPB in data set [3] is on record as above 99%. For the same molecule, the Stability result in data set [4] and in data set [5] was “Stable” in each case.
As to `Fc1cccc(COc2ccc(Nc3ncnc4ccc(-c5ccc(N6CCOCC6)cc5)cc34)cc2Cl)c1`, the EC50 with Trypanosoma brucei [6] was 1.9 µM; in the data set with Leishmania major [1] it was above 15 µM; in the data set on Leishmania major [8], 4.4 µM; in the data set with Plasmodium falciparum it was 0.27 µM. The molecule also displayed an inhibition at 10 µM in the data set on Trypanosoma cruzi [7] of 10.1%. For the same molecule, in [9], the CC50 was 9.6 µM.
On to `Cc1cc(-c2ccc3ncnc(Nc4ccc(OCc5cccc(F)c5)c(Cl)c4)c3c2)cnc1N1CCOCC1`, for which the EC50 with Trypanosoma brucei [6] was 1 µM; in the data set with Leishmania major [1], 1.14 µM; with Leishmania major [8] it was above 20 µM; in the data set on Plasmodium falciparum, 0.26 µM. The molecule also displayed an inhibition at 10 µM in the data set on Trypanosoma cruzi [7] of 49%. In the data set with HepG2, the Activity entry was “Non-toxic”. Besides, the Ratio EC50 in [10] and in data set [11] was below 3 each time.
With `CS(=O)(=O)CCNCc1ccc(-c2ccc3ncnc(Nc4ccc(OCc5cccc(F)c5)c(Cl)c4)c3c2)o1` [LAPATINIB], the CC50 in data set [9] is above 35 µM.
With `Cc1cc(-c2cc3ncnc(Nc4ccc(OCc5cccc(F)c5)c(Cl)c4)c3s2)cnc1N1CCOCC1`, the EC50 was 0.084 µM in the data set with Trypanosoma brucei [6]; 3.3 µM with Trypanosoma cruzi [12]; above 3 µM in the data set on Leishmania major [1]; above 3 µM in the data set on Leishmania major [8]; 0.23 µM in the data set with Plasmodium falciparum. Also, the Activity result in the data set on HepG2 is recorded as “Non-toxic”. Further, the solubility in data set [2] is below 1 µM. The PPB in [3] was above 99%. Besides, the Stability result in data set [4] and in [5] was “Stable” in each case. Besides, the Ratio EC50 in [10] and in [11] was below 3 in each case.
With `Cc1cc(-c2cc3c(Nc4ccc(OCc5cccc(F)c5)c(Cl)c4)ncnc3s2)cnc1N1CCOCC1`, the EC50 in the data set with Trypanosoma brucei [6] is 0.42 µM; with Leishmania major [1] it was above 3 µM; in the data set with Leishmania major [8], above 3 µM; in the data set on Plasmodium falciparum, 0.28 µM. In addition, at 10 µM the inhibition in the data set with Trypanosoma cruzi [7] was 29%. For the same molecule, in the data set on HepG2, the Activity entry was “Non-toxic”. Moreover, the Ratio EC50 in [10] and in [11] was below 3 throughout.
On to `Fc1cccc(COc2ccc(Nc3ncnc4cc(-c5cccc(N6CCOCC6)c5)sc34)cc2Cl)c1`, for which the inhibition at 5 µM in the data set on Trypanosoma brucei [13] is 42%. Also, the EC50 in the data set with Trypanosoma cruzi [12] was above 50 µM; with Leishmania major [1], 5.4 µM; in the data set on Leishmania major [8] it was above 20 µM; with Plasmodium falciparum, 0.86 µM. Also, the Activity entry in the data set on HepG2 was “Non-toxic”.
Regarding `Fc1cccc(COc2ccc(Nc3ncnc4sc(-c5ccccc5)cc34)cc2Cl)c1`, the EC50 with Trypanosoma brucei [6] is 1.7 µM; in the data set with Leishmania major [1], above 15 µM; in the data set with Leishmania major [8], above 20 µM; in the data set with Plasmodium falciparum it was above 20 µM. In the data set with Trypanosoma cruzi [7], this molecule displayed an inhibition at 10 µM of 42%. For the same molecule, in data set [9], the CC50 came to 10 µM.
For `Fc1cccc(COc2ccc(Nc3ncnc4cc(C#C[C@@H]5CCCN5)sc34)cc2Cl)c1`, a half-maximal effect in data set [14] (EC50) was put at 0.26 µM.
In the data set with Trypanosoma brucei [13], `Fc1cccc(COc2ccc(Nc3ncnc4cc(-c5ccccc5Oc5ccccc5)sc34)cc2Cl)c1` registered an inhibition at 5 µM of 10%. For the same molecule, the EC50 with Trypanosoma cruzi [12] was above 50 µM; in the data set on Leishmania major [1], 3.5 µM; with Leishmania major [8], above 20 µM; with Plasmodium falciparum it was 6.21 µM. For the same molecule, the Activity entry in the data set on HepG2 was “Non-toxic”.
In turn, `Fc1cccc(COc2ccc(Nc3ncnc4cc(-c5cc6ccccc6s5)sc34)cc2Cl)c1` yielded an inhibition at 5 µM in the data set on Trypanosoma brucei [13] of 8%. Also, the EC50 in the data set with Trypanosoma cruzi [12] was above 50 µM; in the data set on Leishmania major [1] it was above 15 µM; in the data set with Leishmania major [8] it was above 20 µM; in the data set with Plasmodium falciparum it was above 15 µM. In addition, in the data set with HepG2, the Activity result was “Non-toxic”.
With `O=C(c1cccc(-c2cc3ncnc(Nc4ccc(OCc5cccc(F)c5)c(Cl)c4)c3s2)c1)N1CCCCC1`, at 5 µM the inhibition in the data set on Trypanosoma brucei [13] was 46%. The EC50 in the data set with Trypanosoma cruzi [12] is 3.2 µM; with Leishmania major [1], 3.1 µM; in the data set on Leishmania major [8] it was above 20 µM; in the data set on Plasmodium falciparum, 1.17 µM. Besides, the Activity result in the data set on HepG2 is listed as “Non-toxic”.
Turning to `Fc1cccc(COc2ccc(Nc3ncnc4ccsc34)cc2Cl)c1`, the inhibition at 5 µM in the data set on Trypanosoma brucei [13] came to 1%. Also, the concentration for a half-maximal effect (EC50) in the data set with Trypanosoma cruzi [12] was 27 µM; in the data set on Leishmania major [1], above 15 µM; with Leishmania major [8], 5.68 µM; in the data set on Plasmodium falciparum, 16.4 µM. The Activity result in the data set on HepG2 is “Non-toxic”.
On to `Fc1cccc(COc2ccc(Nc3ncnc4sc(-c5ccc(CN6CCOCC6)cc5)cc34)cc2Cl)c1`, for which, in the data set with Trypanosoma brucei [13], the inhibition at 5 µM was found to be 60%. The 50% effective concentration (EC50) in the data set on Trypanosoma cruzi [12] was 1.7 µM; in the data set with Leishmania major [1] it was 4.2 µM; in the data set on Leishmania major [8], above 20 µM; in the data set on Plasmodium falciparum it was 0.089 µM. Moreover, the Activity result in the data set on HepG2 was “Non-toxic”. Further, the Ratio EC50 in [10] and in [11] was below 3 throughout.
Regarding `Fc1cccc(COc2ccc(Nc3ncnc4ccc(-c5ccccc5)cc34)cc2Cl)c1`, the EC50 in the data set on Trypanosoma brucei [6] is 3.9 µM; with Trypanosoma cruzi [12], 1.8 µM; in the data set with Leishmania major [1], above 15 µM; in the data set on Leishmania major [8] it was 4.05 µM; in the data set with Plasmodium falciparum it was 0.79 µM. Besides, in [9], the CC50 worked out at 4.9 µM.
Consider `CS(=O)(=O)c1cccc(-c2cc3ncnc(Nc4ccc(OCc5cccc(F)c5)c(Cl)c4)c3s2)c1`, for which the half-maximal effective concentration (EC50) with Trypanosoma brucei [6] is 1.4 µM; in the data set on Trypanosoma cruzi [12], 2.7 µM; in the data set on Leishmania major [1] it was above 3 µM; in the data set with Leishmania major [8], above 3 µM; with Plasmodium falciparum, 0.65 µM. The Activity entry in the data set on HepG2 is “Non-toxic”. Moreover, the Ratio EC50 in [10] and in data set [11] was below 3 each time.
`Fc1cccc(COc2ccc(Nc3ncnc4ccc(-c5ccc(CN6CCOCC6)cc5)cc34)cc2Cl)c1`: the 50% effective concentration (EC50) turned out to be 1 µM with Trypanosoma brucei [6]; 0.6 µM in the data set on Trypanosoma cruzi [12]; 5.91 µM with Leishmania major [1]; 2.74 µM in the data set with Leishmania major [8]; 0.063 µM with Plasmodium falciparum. Moreover, in data set [9], the CC50 was found to be 12.9 µM. For the same molecule, the Ratio EC50 in data set [10] and in [11] was below 3 in each case.
